Assay: Forced stress screen (AIBN, peroxide, 0.1N NaOH)
Format: physicochemical
Method: 0.05 mg/mL stock solutions of Compound A were prepared by adding […] of Compound A to a 50 mL volumetric flask and diluted to volume with either 50/50 water/methanol (stock solution A), or 50/50 water/acetonitrile (stock solution B).
An azobisisobutyronitrile (AIBN) stress solution was prepared by dissolving 7.77 mg of AIBN in 10 mL of stock solution A in an amber volumetric flask and sonicating to dissolve. The AIBN control solution was prepared by dissolving 8.48 mg of AIBN in 10 mL of 50/50 methanol/water in an amber volumetric flask. Both solutions were placed in an oven at 40° C. for 24 hours.
A peroxide stress solution was prepared by adding 1.0 mL of 3% hydrogen peroxide to 9.0 mL of stock solution A in a volumetric flask. An aliquot of the solution was placed into an amber vial kept at room temperature, and another aliquot was stored at 5° C. for 24 hours. The peroxide control solution was prepared by adding 1.0 mL of 3% hydrogen peroxide to 9.0 mL 50/50 methanol/water in an amber volumetric flask. This solution was kept at room temperature for 24 hours.
A 0.1N NaOH stress solution was prepared by adding 1.0 mL of 1N sodium hydroxide to 9.0 mL of stock solution B in an amber volumetric flask. One sample was kept at room temperature, and the identical sample was placed in an oven at 60° C. for 24 hours. A 0.1N NaOH control solution was prepared by adding 1.0 mL of 1N sodium hydroxide to 9.0 mL of 50/50 acetonitrile/water in an amber volumetric flask.
No major degradation was observed under AIBN or 0.1N NaOH base stress. […] The percent of Compound A was calculated based on the area count of active peak in the control samples compared to stress samples.

## Nc1nc2c(ncn2[C@@H]2O[C@@H]3CO[P@@](=O)(S)O[C@H]4[C@H](F)[C@H](n5cnc6c(N)ncnc65)O[C@@H]4CO[P@@](=O)(S)O[C@@H]2[C@@H]3F)c(=O)[nH]1 (single isomer, unassigned) [Compound A]
0.1 N NaOH base stress, in 0.1 N NaOH after 24h/RT
  Sensitive for Hydrolysis or Oxidation: No sensitivity; <5% drug loss
AIBN stress
  Sensitive for Hydrolysis or Oxidation: No sensitivity; <5% drug loss
Peroxide stress at 5° C.
  Sensitive for Hydrolysis or Oxidation: High sensitivity; >10% drug loss
Peroxide stress at RT
  Sensitive for Hydrolysis or Oxidation: High sensitivity; >10% drug loss
Forced stress
  Sensitivity to two-electron oxidative processes: highly sensitive

— patent publication US20220175811A1, “STABLE FORMULATIONS OF CYCLIC DINUCLEOTIDE STING AGONIST COMPOUNDS AND METHODS OF USE THEREOF” (Merck Sharp & Dohme Corp., priority 2019, published 2022)
